{"source": "patent US4175125A", "about": "“Method for treating methicillin resistant staphylococcus aureus” (Eli Lilly and Company, priority 1978, dated 1979)", "key": {"[1]": {"system": "Staphylococcus aureus cultures", "test": "Agar dilution susceptibility test, phenylthioacetyl cephalosporins vs methicillin resistant S. aureus (Example 9)", "assay_type": "cell-based", "conditions": "Staphylococcus aureus, read-out: MIC", "from_the_text": "This example compares the antibiotic activities of three known compounds, methicillin, cephalothin, and cephaloridine, with three compounds from the above examples, in terms of minimum inhibitory concentration (MIC) values in microgram/milliliter units against various isolates of Staphylococcus aureus cultures. The culture numbers and the procedures used to obtain the reported data are disclosed by W. E. Wick and D. A. Preston in their article \"Heterogeneous Methicillin-Resistant Staphylococcus Aureus\" which appeared in Progress in Antimicrobial And Anticancer Chemotherapy, Proceedings of the 6th International Congress of Chemotherapy, Volume, 1, U. of Tokyo Press, Tokyo, (1970). In these agardilution susceptibility tests, the inocula were diluted to 10^3 bacteria per spot. Cultures 3055 (benzylpenicillin sensitive) and H232 (benzylpenicillin-resistant) are controls. The remaining cultures are methicillin-resistant, and, except for 3136, are clinical isolates. Culture 3136 is a 4th transfer laboratory selected mutant."}, "[2]": {"system": "Staphylococcus aureus cultures", "test": "Broth dilution MIC in trypticase soy broth, low and high NaCl (Example 10)", "assay_type": "cell-based", "conditions": "for MIC: Staphylococcus aureus, TSB, read-out: MIC", "method": "This example compares the antibiotic activities of methicillin, cephalothin and cephaloridine with the compounds of Examples 1, 2 and 3, in broth dilution tests. The MIC values, in μg/ml., are against the same Staphylococcus aureus cultures described in Example 9, except that in this example the cultures were grown in trypticase soy broth (TSB). Growing the cultures in two broth cultures, one having a low (0.5 percent) sodium chloride content and one having a high (5.0 percent) sodium chloride content is said to assist in identifying the methicillin-resistant cultures from those which are not methicillin-resistant. […] See Chabbert, Y. A., 1967 Postgrad. Med. J., 43 (suppl); 40-46. One expects that similar changes in MIC values for this type of culture to other β-lactam antibiotics, e.g., various penicillins and cephalosporins, to have similar implications. […] That is, methicillin-resistant S.aureus cultures are susceptible to the cephalosporin antibiotics used in this invention."}, "[3]": {"conditions": "culture 3130, table part marked b"}, "[4]": {"conditions": "culture 3130, table part marked c"}, "[5]": {"conditions": "culture 3131, table part marked b"}, "[6]": {"conditions": "culture 3131, table part marked c"}, "[7]": {"conditions": "culture 3134, table part marked b"}, "[8]": {"conditions": "culture 3134, table part marked c"}, "[9]": {"conditions": "culture 3135, table part marked b"}, "[10]": {"conditions": "culture 3135, table part marked c"}, "[11]": {"conditions": "culture 3136, table part marked b"}, "[12]": {"conditions": "culture 3136, table part marked c"}, "[13]": {"conditions": "culture 3137, table part marked b"}, "[14]": {"conditions": "culture 3137, table part marked c"}, "[15]": {"conditions": "culture 3138, table part marked b"}, "[16]": {"conditions": "culture 3138, table part marked c"}, "[17]": {"conditions": "culture 3139, table part marked b"}, "[18]": {"conditions": "culture 3139, table part marked c"}, "[19]": {"conditions": "culture (Seattle) 966, table part marked b"}, "[20]": {"conditions": "culture (Seattle) 966, table part marked c"}, "[21]": {"conditions": "culture S61, table part marked b"}, "[22]": {"conditions": "culture S61, table part marked c"}}}
{"smiles": "COc1cccc(OC)c1C(=O)N[C@@H]1C(=O)N2[C@@H]1SC(C)(C)[C@@H]2C(=O)O", "note": "[Methicillin, methicillin]", "values": [{"measurement": "MIC", "setting": "[1]; culture 3055 (control, benzylpenicillin sensitive), table part marked b", "value": 1, "unit": "µg/mL"}, {"measurement": "MIC", "setting": "[1]; culture 3055 (control, benzylpenicillin sensitive), table part marked c", "value": 2, "unit": "µg/mL"}, {"measurement": "MIC", "setting": "[1]; [3]", "value": 8, "unit": "µg/mL"}, {"measurement": "MIC", "setting": "[1]; [4]", "value": 128, "unit": "µg/mL"}, {"measurement": "MIC", "setting": "[1]; [5]", "value": 8, "unit": "µg/mL"}, {"measurement": "MIC", "setting": "[1]; [6]", "value": 128, "unit": "µg/mL"}, {"measurement": "MIC", "setting": "[1]; culture 3132, table part marked b", "value": 8, "unit": "µg/mL"}, {"measurement": "MIC", "setting": "[1]; culture 3132, table part marked c", "value": 32, "unit": "µg/mL"}, {"measurement": "MIC", "setting": "[1]; culture 3133, table part marked b", "value": 8, "unit": "µg/mL"}, {"measurement": "MIC", "setting": "[1]; culture 3133, table part marked c", "value": 128, "unit": "µg/mL"}, {"measurement": "MIC", "setting": "[1]; [7]", "value": 16, "unit": "µg/mL"}, {"measurement": "MIC", "setting": "[1]; [8]", "value": 64, "unit": "µg/mL"}, {"measurement": "MIC", "setting": "[1]; [9]", "value": 8, "unit": "µg/mL"}, {"measurement": "MIC", "setting": "[1]; [10]", "value": 64, "unit": "µg/mL"}, {"measurement": "MIC", "setting": "[1]; [11]", "value": 8, "unit": "µg/mL"}, {"measurement": "MIC", "setting": "[1]; [12]", "value": 64, "unit": "µg/mL"}, {"measurement": "MIC", "setting": "[1]; [13]", "value": "> 128", "unit": "µg/mL"}, {"measurement": "MIC", "setting": "[1]; [14]", "value": "> 128", "unit": "µg/mL"}, {"measurement": "MIC", "setting": "[1]; [15]", "value": 16, "unit": "µg/mL"}, {"measurement": "MIC", "setting": "[1]; [16]", "value": "> 128", "unit": "µg/mL"}, {"measurement": "MIC", "setting": "[1]; [17]", "value": 8, "unit": "µg/mL"}, {"measurement": "MIC", "setting": "[1]; [18]", "value": "> 128", "unit": "µg/mL"}, {"measurement": "MIC", "setting": "[1]; [19]", "value": 8, "unit": "µg/mL"}, {"measurement": "MIC", "setting": "[1]; [20]", "value": 64, "unit": "µg/mL"}, {"measurement": "MIC", "setting": "[1]; culture H232 (control, benzylpenicillin-resistant), table part marked b", "value": 2, "unit": "µg/mL"}, {"measurement": "MIC", "setting": "[1]; culture H232 (control, benzylpenicillin-resistant), table part marked c", "value": 2, "unit": "µg/mL"}, {"measurement": "MIC", "setting": "[1]; culture Kavarmark 1138501, table part marked b", "value": 8, "unit": "µg/mL"}, {"measurement": "MIC", "setting": "[1]; culture Kavarmark 1138501, table part marked c", "value": 128, "unit": "µg/mL"}, {"measurement": "MIC", "setting": "[1]; [21]", "value": 8, "unit": "µg/mL"}, {"measurement": "MIC", "setting": "[1]; [22]", "value": 128, "unit": "µg/mL"}, {"measurement": "difference in MIC values in low versus high salt TSB cultures", "setting": "[2]; 0.5 percent vs 5.0 percent NaCl, methicillin-resistant S. aureus", "value": "wide disparity in MIC values"}, {"measurement": "MIC", "setting": "[2]; culture 3055 (control), table part marked b", "value": 2, "unit": "µg/mL"}, {"measurement": "MIC", "setting": "[2]; culture 3055 (control), table part marked c", "value": 2, "unit": "µg/mL"}, {"measurement": "MIC", "setting": "[2]; [3]", "value": 16, "unit": "µg/mL"}, {"measurement": "MIC", "setting": "[2]; [4]", "value": 64, "unit": "µg/mL"}, {"measurement": "MIC", "setting": "[2]; [5]", "value": 16, "unit": "µg/mL"}, {"measurement": "MIC", "setting": "[2]; [6]", "value": 128, "unit": "µg/mL"}, {"measurement": "MIC", "setting": "[2]; culture 3132 (first column so headed), table part marked b", "value": 32, "unit": "µg/mL"}, {"measurement": "MIC", "setting": "[2]; culture 3132 (first column so headed), table part marked c", "value": 64, "unit": "µg/mL"}, {"measurement": "MIC", "setting": "[2]; culture 3132 (second column so headed), table part marked b", "value": 8, "unit": "µg/mL"}, {"measurement": "MIC", "setting": "[2]; culture 3132 (second column so headed), table part marked c", "value": 128, "unit": "µg/mL"}, {"measurement": "MIC", "setting": "[2]; [7]", "value": 32, "unit": "µg/mL"}, {"measurement": "MIC", "setting": "[2]; [8]", "value": 64, "unit": "µg/mL"}, {"measurement": "MIC", "setting": "[2]; [9]", "value": 32, "unit": "µg/mL"}, {"measurement": "MIC", "setting": "[2]; [10]", "value": 64, "unit": "µg/mL"}, {"measurement": "MIC", "setting": "[2]; [11]", "value": 32, "unit": "µg/mL"}, {"measurement": "MIC", "setting": "[2]; [12]", "value": 128, "unit": "µg/mL"}, {"measurement": "MIC", "setting": "[2]; [13]", "value": "> 128", "unit": "µg/mL"}, {"measurement": "MIC", "setting": "[2]; [14]", "value": "> 128", "unit": "µg/mL"}, {"measurement": "MIC", "setting": "[2]; [15]", "value": 128, "unit": "µg/mL"}, {"measurement": "MIC", "setting": "[2]; [16]", "value": 128, "unit": "µg/mL"}, {"measurement": "MIC", "setting": "[2]; [17]", "value": 16, "unit": "µg/mL"}, {"measurement": "MIC", "setting": "[2]; [18]", "value": "> 128", "unit": "µg/mL"}, {"measurement": "MIC", "setting": "[2]; [19]", "value": 8, "unit": "µg/mL"}, {"measurement": "MIC", "setting": "[2]; [20]", "value": 64, "unit": "µg/mL"}, {"measurement": "MIC", "setting": "[2]; culture H232 (control), table part marked b", "value": 4, "unit": "µg/mL"}, {"measurement": "MIC", "setting": "[2]; culture H232 (control), table part marked c", "value": 4, "unit": "µg/mL"}, {"measurement": "MIC", "setting": "[2]; culture Kavarnick 1138501, table part marked b", "value": 32, "unit": "µg/mL"}, {"measurement": "MIC", "setting": "[2]; culture Kavarnick 1138501, table part marked c", "value": 128, "unit": "µg/mL"}, {"measurement": "MIC", "setting": "[2]; [21]", "value": 16, "unit": "µg/mL"}, {"measurement": "MIC", "setting": "[2]; [22]", "value": 64, "unit": "µg/mL"}, {"measurement": "MIC", "setting": "[2]; culture S, table part marked b", "value": 16, "unit": "µg/mL"}, {"measurement": "MIC", "setting": "[2]; culture S, table part marked c", "value": 16, "unit": "µg/mL"}]}
